{"source": "patent US20070054353A1", "about": "“Nuclear receptor transcriptional corepressor and uses thereof” (priority 2002, published 2007)", "key": {"PR": {"biological_target": "T1, PR (Homo sapiens, UniProt P06401)", "T1 construct": "expressed in transfected cells; host or cells: COS-7", "T1 sequence (P06401 1-933)": "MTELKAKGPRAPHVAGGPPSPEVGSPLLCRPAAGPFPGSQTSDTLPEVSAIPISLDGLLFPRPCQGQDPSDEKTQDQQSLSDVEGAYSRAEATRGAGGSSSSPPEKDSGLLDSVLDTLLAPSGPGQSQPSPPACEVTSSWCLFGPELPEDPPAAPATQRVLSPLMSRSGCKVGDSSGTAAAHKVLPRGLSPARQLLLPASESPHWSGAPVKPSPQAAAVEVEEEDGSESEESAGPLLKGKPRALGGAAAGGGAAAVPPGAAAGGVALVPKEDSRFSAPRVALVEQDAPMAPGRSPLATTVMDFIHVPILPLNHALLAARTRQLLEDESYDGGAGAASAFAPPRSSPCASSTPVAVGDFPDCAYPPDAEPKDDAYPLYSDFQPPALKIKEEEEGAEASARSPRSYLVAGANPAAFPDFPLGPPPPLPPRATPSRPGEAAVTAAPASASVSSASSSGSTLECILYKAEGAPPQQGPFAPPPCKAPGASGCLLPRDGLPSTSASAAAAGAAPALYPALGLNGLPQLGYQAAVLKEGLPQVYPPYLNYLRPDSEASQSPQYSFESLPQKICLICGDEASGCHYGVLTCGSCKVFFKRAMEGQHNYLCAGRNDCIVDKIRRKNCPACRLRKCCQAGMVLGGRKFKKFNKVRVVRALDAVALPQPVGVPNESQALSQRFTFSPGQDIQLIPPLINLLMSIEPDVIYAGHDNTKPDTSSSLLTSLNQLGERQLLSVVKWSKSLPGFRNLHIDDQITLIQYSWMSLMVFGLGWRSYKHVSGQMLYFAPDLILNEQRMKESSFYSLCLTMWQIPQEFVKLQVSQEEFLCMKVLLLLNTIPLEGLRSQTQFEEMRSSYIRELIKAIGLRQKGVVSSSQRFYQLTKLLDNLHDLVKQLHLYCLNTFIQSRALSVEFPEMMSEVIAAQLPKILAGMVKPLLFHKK", "assay": "Transient transfection luciferase reporter, PR transactivation in COS-7 cells", "type": "cell-based", "conditions": "TSA 3 μM, COS-7 cells", "procedure": "All cell lines were cultured under the recommended conditions. COS-7 cells grown in […] in DMEM without phenol red, supplemented with 10% FBS were transfected in medium without serum with lipofectamine 2000 (Invitrogen, Burlington, Ont.) with 100 ng of nuclear receptor expression vectors as indicated, 200 ng of TIF-2 or TIF-2.1, as indicated, 250 ng of reporter plasmid, 250 ng of infemal control vector pCMV-βgal, and various concentrations of LCoR/pSG5 or LCoR-LSKAA/pSG5 expression vectors and pSG5 carrier. Medium was replaced 24 h after transfection by a medium containing charcoal-stripped serum and ligand (100 nM) and TSA (3 μM) for 18 h, as indicated. Cells were harvested in 200 […] of reporter lysis buffer (Promega).\nCOS-7 cells were cotransfected with expression vectors for ERα HEG0 (A and C) or GR (D) or PR (F) or VDR (H), ERE3-TATA-pXP2 (A and C), GRE5/pXP2 (D and F) or VDRE3tk/pXP2 (H) luciferase reporter vectors, pCMV-β-gal as internal control, and LCoR/pSG5 or LSKAA/pSG5 expression vectors as indicated. Cells were treated with 10^−7M of hormones (solid bars) or vehicle (open bars). Normalized luciferase activities (RLU) are the means±SEM from at least 3 experiments. […] Cells were transfected as in FIG. 5A with LCoR, TIF-2 or TIF2.1 as indicated. […]"}, "HDAC6": {"tested_on": "HDAC6", "assay": "ERα-dependent CAT reporter with LCoR and HDAC6 cotransfection in MCF-7 cells", "type": "cell-based, human", "conditions": "estradiol 10 nM, TSA 500 nM, trapoxin 50 nM", "procedure": "All cells were cultured under the recommended conditions. For immunocytochemistry, COS-7 cells grown on collagen IV-treated microscope slides in 6-well plates in DMEM, supplemented with 10% FBS were transfected in medium without serum with 12.5 μl of lipofectamine 2000 (Invitrogen, Burlington, Ont.) containing 1 μg each of pSG5/LCoR and HA-Flag-HDAC6/pcDNA3. Medium was replaced 24 h after transfection and cells were prepared for immunocytochemistry after 48 h as described below. For immunoprecipitation of tagged proteins, MCF-7 cells in 100 mm dishes were transfected with 10 μl of lipofectamine containing 10 μg of pSG5 vectors containing Flag-LCoR, Flag-m1, Flag-m2 or Flag-m1+2. For analysis of the effects of HDACs 3 or 6 on LCoR corepression, COS-7 cells (60-70% confluent) grown in DMEM without phenol red, supplemented with 10% FBS on 6-well plates were transfected in medium without serum with lipofectamine 2000 (Invitrogen, Burlington, Ontario, Canada) with 100 ng of ERα expression vectors as indicated, 300 ng of LCoR/pSG5, 300 ng of HA-HDAC3/pCDNA3.1 or […], 250 ng of ERE3-TATA-CAT reporter plasmid, 250 ng of internal control vector pCMV-βgal, and pBluescript carrier DNA to 4 μg. Medium was replaced 18 hr after transfection by a medium containing charcoal-stripped serum and ligand (10 nM) for 30 hr, as indicated. […]"}}}
{"smiles": "CC(/C=C/C(=O)NO)=C\\[C@@H](C)C(=O)c1ccc(N(C)C)cc1", "note": "[TSA, trichostatin A]", "values": [{"measurement": "effect on LCoR repression of PR function", "setting": "PR", "result": "little or no effect"}, {"measurement": "effect on HDAC6 repression / enhancement of LCoR corepression of ERα transactivation", "setting": "HDAC6", "result": "abolished"}]}
